Assay results published in article PMC3779694 (Hepatology (Baltimore, Md.), 2011).
“Also recorded” adds a separate entry of the source.

Test system: adults with NASH
Test: Adverse events, phase 2 trial
Assay type: in vivo, human
Conditions: for Abdominal pain upper / Arthralgia / Asthenia / Back pain / Constipation / Diarrhea / Dizziness / Dry mouth / Dyspepsia / Fatigue / Gastroesophageal reflux disease / Headache / Nasopharyngitis / Nausea / No. of subjects with at least one AE / Pain in extremity / Somnolence / Total no. of events (AEs) / Abdominal pain: during treatment

SMILES: CC(C)[C@@]1(C(=O)N[C@H]2CC(=O)O[C@]2(O)CF)CC(c2nccc3ccccc23)=NO1 [GS-9450]
- Abdominal pain upper (1 mg (n = 26)): 1 (4) n (%)
- Arthralgia (1 mg (n = 26)): 1 (4) n (%)
- Asthenia (1 mg (n = 26)): 1 (4) n (%)
- Back pain (1 mg (n = 26)): 1 (4) n (%)
- Constipation (1 mg (n = 26)): 2 (8) n (%)
- Diarrhea (1 mg (n = 26)): 2 (8) n (%)
- Dizziness (1 mg (n = 26)): 2 (8) n (%)
- Dry mouth (1 mg (n = 26)): 1 (4) n (%)
- Dyspepsia (1 mg (n = 26)): 2 (8) n (%)
- Fatigue (1 mg (n = 26)): 6 (23) n (%)
- Gastroesophageal reflux disease (1 mg (n = 26)): 0 n (%)
- Headache (1 mg (n = 26)): 4 (15) n (%)
- Nasopharyngitis (1 mg (n = 26)): 2 (8) n (%)
- Nausea (1 mg (n = 26)): 3 (12) n (%)
- No. of subjects with at least one AE (1 mg (n = 26)): 20 (77) n (%)
- Pain in extremity (1 mg (n = 26)): 1 (4) n (%)
- Somnolence (1 mg (n = 26)): 1 (4) n (%)
- Total no. of events (AEs) (1 mg (n = 26)): 62
- frequency of treatment-emergent AEs during the 4-week on-treatment period (5 mg): 85%
- Abdominal pain (5 mg (n = 26)): 2 (8) n (%)
- Abdominal pain upper (5 mg (n = 26)): 1 (4) n (%)
- Arthralgia (5 mg (n = 26)): 3 (12) n (%)
- Asthenia (5 mg (n = 26)): 1 (4) n (%)
- Back pain (5 mg (n = 26)): 2 (8) n (%)
- Constipation (5 mg (n = 26)): 0 n (%)
- Diarrhea (5 mg (n = 26)): 6 (23) n (%)
- Dizziness (5 mg (n = 26)): 0 n (%)
- Dry mouth (5 mg (n = 26)): 0 n (%)
- Dyspepsia (5 mg (n = 26)): 2 (8) n (%)
- Fatigue (5 mg (n = 26)): 5 (19) n (%)
- Gastroesophageal reflux disease (5 mg (n = 26)): 0 n (%)
- Headache (5 mg (n = 26)): 7 (27) n (%)
- Nasopharyngitis (5 mg (n = 26)): 0 n (%)
- Nausea (5 mg (n = 26)): 1 (4) n (%)
- No. of subjects with at least one AE (5 mg (n = 26)): 22 (85) n (%)
- Pain in extremity (5 mg (n = 26)): 0 n (%)
- Somnolence (5 mg (n = 26)): 2 (8) n (%)
- Total no. of events (AEs) (5 mg (n = 26)): 64
- frequency of treatment-emergent AEs during the 4-week on-treatment period (10 mg): 75%
- Abdominal pain (10 mg (n = 24)): 1 (4) n (%)
- Abdominal pain upper (10 mg (n = 24)): 4 (17) n (%)
- Arthralgia (10 mg (n = 24)): 1 (4) n (%)
- Asthenia (10 mg (n = 24)): 1 (4) n (%)
- Back pain (10 mg (n = 24)): 0 n (%)
- Constipation (10 mg (n = 24)): 0 n (%)
- Diarrhea (10 mg (n = 24)): 6 (25) n (%)
- Dizziness (10 mg (n = 24)): 0 n (%)
- Dry mouth (10 mg (n = 24)): 2 (8) n (%)
- Dyspepsia (10 mg (n = 24)): 1 (4) n (%)
- Fatigue (10 mg (n = 24)): 2 (8) n (%)
- Gastroesophageal reflux disease (10 mg (n = 24)): 0 n (%)
- Headache (10 mg (n = 24)): 4 (17) n (%)
- Nasopharyngitis (10 mg (n = 24)): 0 n (%)
- Nausea (10 mg (n = 24)): 3 (13) n (%)
- No. of subjects with at least one AE (10 mg (n = 24)): 18 (75) n (%)
- Pain in extremity (10 mg (n = 24)): 1 (4) n (%)
- Somnolence (10 mg (n = 24)): 0 n (%)
- Total no. of events (AEs) (10 mg (n = 24)): 67
- frequency of treatment-emergent AEs during the 4-week on-treatment period (40 mg): 80%
- Abdominal pain (40 mg (n = 25)): 1 (4) n (%)
- Abdominal pain upper (40 mg (n = 25)): 1 (4) n (%)
- Arthralgia (40 mg (n = 25)): 3 (12) n (%)
- Asthenia (40 mg (n = 25)): 0 n (%)
- Back pain (40 mg (n = 25)): 1 (4) n (%)
- Constipation (40 mg (n = 25)): 2 (8) n (%)
- Diarrhea (40 mg (n = 25)): 5 (20) n (%)
- Dizziness (40 mg (n = 25)): 2 (8) n (%)
- Dry mouth (40 mg (n = 25)): 1 (4) n (%)
- Dyspepsia (40 mg (n = 25)): 1 (4) n (%)
- Fatigue (40 mg (n = 25)): 2 (8) n (%)
- Gastroesophageal reflux disease (40 mg (n = 25)): 3 (12) n (%)
- Headache (40 mg (n = 25)): 4 (16) n (%)
- Nasopharyngitis (40 mg (n = 25)): 2 (8) n (%)
- Nausea (40 mg (n = 25)): 3 (12) n (%)
- No. of subjects with at least one AE (40 mg (n = 25)): 20 (80) n (%)
- Pain in extremity (40 mg (n = 25)): 2 (8) n (%)
- Somnolence (40 mg (n = 25)): 0 n (%)
- Total no. of events (AEs) (40 mg (n = 25)): 60
- subjects who left the study because of a treatment-related AE (40 mg, moderate facial flushing from day 1): One subject
- overall safety and tolerability (4 weeks, 1-40 mg): safe and well tolerated
- serious adverse events during the on-treatment period (all GS-9450 doses, 4 weeks): No serious adverse events; also recorded: no serious AEs (SAEs)
- deaths during the study (all groups): no deaths
